This is an account of results in patent US20100069499A1 (priority 2007, published 2010).

In experiment [1] the test system is Sclerotinia sclerotiorum. Nature of the experiment: Test of preventive effect on cucumber stem rot. The experiment is classed as in vivo. Particulars: cucumber (Sagamihanjiro), foliage application 500 ppm, 4 days at 18° C. and high humidity. On the procedure: (§1) The controlling effect was evaluated by visually observing the area or a lesion spots on each of test plants at the time of investigation and comparing the area of lesion spots on a plant treated with the compound of the present invention with that on an untreated plant.
Each of plastic pots was filled with sandy loam and sown with cucumber (variety; Sagamihanjiro), followed by growing in a greenhouse for 12 days. The compound 2 of the present invention was formulated into a flowable formulation according to Formulation Example 6. The flowable formulation was diluted to a predetermined concentration (500 ppm) with water, and foliage application of the dilution was carried out so that the dilution adhered sufficiently to the surfaces of leaves of the grown cucumber young seedling. After the foliage application, the plant was air-dried and a PDA medium containing mycelia of Sclerotinia sclerotiorum was placed on the surfaces of the cucumber leaves. After the inoculation, the plant was grown at 18° C. and high humidity for 4 days. Then, the area of lesion spots was investigated.

Experiment [2] concerns Fusarium culmorum. Briefly: Test of preventive effect on wheat Fusarium blight. The experiment is classed as in vivo. Particulars: wheat (Shirogane), foliage application 500 ppm, 4 days darkness and high humidity at 23° C. then 3 days lighting. On the procedure:
as §1
Each of plastic pots was filled with sandy loam and sown with wheat (cultivar; Shirogane), followed by growing in a greenhouse for 10 days. The compound 1 of the present invention was formulated into a flowable formulation according to Formulation Example 6. The flowable formulation was diluted to a predetermined concentration (500 ppm) with water, and foliage application of the dilution was carried out so that the dilution adhered sufficiently to the surfaces of leaves of the grown wheat young seedling. After the foliage application, the plant was air-dried and then inoculated by spraying a water suspension of spores of Fusarium culmorum. After the inoculation, the plant was held under darkness and high humidity conditions at 23° C. for 4 days and held under lighting conditions for 3 days, and then the area of lesion spots was investigated.

For `C#CCOc1c(F)cc(C(=O)NC2CCCCC2C)cc1Cl` (centres unmarked) [compound 2, N-(2-methylcyclohexyl)-3-chloro-5-fluoro-4-(2-propynyloxy)benzamide], the “area of lesion spots on the treated plant relative to that on an untreated plant” value in experiment [1] is not above 30%. For the compound `C#CCOc1c(F)cc(C(=O)NCC2CCCCC2)cc1Cl` [compound 1, N-(cyclohexylmethyl)-3-chloro-5-fluoro-4-(2-propynyloxy)benzamide], the “area of lesion spots on the treated plant relative to that on an untreated plant” value in experiment [2] is recorded as not above 30%.
